# Results taken from patent US10934304B2, “Spirocyclic compounds” (Recurium IP Holdings, LLC, priority 2016, dated 2021).
# How the values were obtained:
# [1] = biological target: ERK2 (Homo sapiens (Human), UniProt P28482); test: Active ERK1 and ERK2 Kinase Assay (Mobility Shift Assay); format: biochemical; conditions: activated ERK2, Mobility Shift Assay
# Outline: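 Mobility shift assay: compound preincubated with activated kinase 30 min at rt in 20 mM HEPES pH 7.5, 0.01% Triton X-100, 2 mM DTT. Reaction started with fluorescent substrate, ATP and metal, run 1 h at rt; activity taken as product ratio P/(P+S) after LabChip peptide separation.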
# [2] = system: A375 (melanoma) cells; test: Proliferation Assay (CellTiter-Glo); format: cell-based; conditions: 3 days incubation, CellTiter-Glo luminescence
# Outline: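 A375 cells in RPMI-1640 with 10% FBS, plated overnight, then exposed to 10-point 3-fold serial compound dilutions for 3 days at 37° C, 5% CO2. Viability read by CellTiter-Glo luminescence.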
# ERK2, sequence (P28482 whole entry): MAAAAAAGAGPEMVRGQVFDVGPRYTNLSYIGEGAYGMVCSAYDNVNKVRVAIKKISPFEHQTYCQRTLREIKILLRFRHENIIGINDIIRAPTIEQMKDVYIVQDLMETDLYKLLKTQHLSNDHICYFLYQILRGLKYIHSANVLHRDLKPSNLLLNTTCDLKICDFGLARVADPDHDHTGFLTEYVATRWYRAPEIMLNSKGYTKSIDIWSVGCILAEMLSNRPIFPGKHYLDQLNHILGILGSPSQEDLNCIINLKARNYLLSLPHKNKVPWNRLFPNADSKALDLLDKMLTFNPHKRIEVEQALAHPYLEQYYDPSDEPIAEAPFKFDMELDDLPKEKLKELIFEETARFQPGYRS
SMILES,IC50 [1],IC50 [2],"IC50 ([2]; Homo sapiens, A-375, 72 h)"
Cn1cnc(-c2ccc(N3CCN(C(=O)CN4CC[C@]5(CCN(c6ccc7[nH]nc(-c8ccc(F)cn8)c7c6)C5=O)C4)CC3)nc2)n1 [Example 57],≤ 50 nM,≤ 500 nM,
Cn1cnc(-c2ccc(C3=CCN(C(=O)CN4CC[C@]5(CCN(c6ccc7[nH]nc(-c8ccc(OC9CC9)nc8)c7n6)C5=O)C4)CC3)cc2)n1 [Example 67],≤ 50 nM,≤ 500 nM,
Cn1cnc(-c2ccc(N3CCN(C(=O)CN4CC[C@]5(CCN(c6ccc7[nH]nc(-c8ccc(F)cc8)c7n6)C5=O)C4)CC3)nc2)n1 [Example 45],≤ 50 nM,≤ 500 nM,
Cn1cnc(-c2ccc(C3=CCN(C(=O)CN4CC[C@]5(CCN(c6ccc7[nH]nc(-c8cnc(C#N)c(C(F)(F)F)c8)c7c6)C5=O)C4)CC3)cc2)n1 [Example 10],≤ 50 nM,,500 to 1000 nM
Cn1cnc(-c2ccc(C3=CCN(C(=O)CN4CC[C@]5(CCN(c6ccc7[nH]nc(-c8ccc(Cl)cc8)c7n6)C5=O)C4)CC3)cc2)n1 [Example 68],≤ 50 nM,≤ 500 nM,
